# From patent US11833185B2, “Anti-neurodegenerative therapeutic, method of manufacture, and use” (UNIVERSITY OF KENTUCKY RESEARCH FOUNDATION, priority 2017, dated 2023)
# Where two headings read alike, the source gives them in different places. Where no end group is shown, it is not given here.
# What was measured:
# Parkinson's disease = settings: person
# Experimental: A person presents with current diagnosis of Parkinson's disease with motor complications and responsiveness to levodopa or dopa agonists. They are buccally administered 100 mg at every 12 hours for 180 days. At 1, 90, 180, 270 and 360 days they are tested/retested with a battery of neurological tests including Unified Parkinson's Disease Rating Scale (UPDRS), Time Tests, Hoehn and Yahr (HY) Scale, Clinical Global Impression of Severity (CGIS), Clinical Impression of Severity Index (CISI-PD), Patient Global Impression of Severity (PGIS).
# A person presents with diagnosis of Parkinson's disease. They are administered peptide by intranasal spray at a dosage of 25 mg, daily for 60 days. At 1, 90, 180, 270 and 360 days they are tested/retested with a battery of neurological tests including Unified Parkinson's Disease Rating Scale (UPDRS), Time Tests, Hoehn and Yahr (HY) Scale, Clinical Global Impression of Severity (CGIS), Clinical Impression of Severity Index (CISI-PD), Patient Global Impression of Severity (PGIS).
# [1] = test system: substantia nigra levels of DA, DOPAC, HVA, 5-HT, 5-HIAA, and NE; assay: Substantia nigra neurochemistry (RP-HPLC EC) after repeated intranasal administration; assay type: in vivo, normal Fischer 344 rats; settings: for Turnover ratio 5-HIAA/5-HT / Turnover ratio (HVA + DOPAC)/DA / Turnover ratio DOPAC/DA / Turnover ratio HVA/DA / 5-HIAA / 5-HT / DA / DOPAC / HVA / NE: 5 days a week for 3 weeks, combined left and right substantia nigra, mean; for 5-HIAA / 5-HT / DA / DOPAC / HVA / NE: wet tissue weight; for decrease of NE levels: versus vehicle treated rats
# Experimental: (§1) Groups of 12, 3 month old Fischer 344 rats were intranasally dosed 50 microliters (4 single 12.5 microliter administrations, 2 per nare, 5 minutes between each nare administration) of either vehicle, 1.1 mg/mL, or 3.5 mg/mL of AV6403 [Leu-Ala-Pro-Ala-Glu-Asp-NH2] (SEQ ID NO: 1) once a day for 5 days a week, for 3 weeks (5 consecutive days of dosing, 2 off days, repeated total of 3 times). Following day 21, rats were euthanized and brain tissue was recovered and sections removed and weighed for neurochemical analysis by Reverse-Phase High Pressure Liquid Chromatography Electrochemical detection (RP-HPLC EC).
# In the SN [TABLE 3], treatment of AV6403 led to about a 13% increase in DOPAC and a 11% reduction of HVA, depending on the dosage, [FIG. 4A-FIG. 4C] resulting in an increase in dopamine turnover (20% [DOPAC/DA] for 3.5 mg/mL dosage; 23% [(HVA+DOPAC)/DA] for 1.1 mg/mL) relative to saline vehicle treated rats [FIG. 5A-FIG. 5B]. Treatment with 1.1 mg/mL AV6403 decreased 5-HT by 10% in the SN, resulting in a 16% increase in serotonin turnover [5-HIAA/5-HT] [TABLE 4]. The higher dosage (3.5 mg/mL AV6403) increased NE levels in the SN by about 23% versus vehicle treated rats, respectively [TABLE 3].
# as §1, with “1.2” for “1.1”, “3.6” for “3.5”, “AV7624 [Glu-Ala-Pro-Phe-Glu-Asp-NH2]” for “AV6403 [Leu-Ala-Pro-Ala-Glu-Asp-NH2] (SEQ ID NO: 1)”, “RP-HPLC EC.” for “Reverse-Phase High Pressure Liquid Chromatography Electrochemical detection (RP-HPLC EC).”
# In the SN [TABLE 7], treatment with 3.6 mg/mL AV7624 led to about a 23%, 22%, and a 6% decrease in DA, DOPAC, and HVA [FIG. 9A-FIG. 9C], relative to saline vehicle treated rats, with minor effects on dopamine turnover [FIG. 10A-FIG. 10B]. Treatment with 3.6 mg/mL AV7624 decreased 5-HT by 20% and 5-HIAA by about 18% in the SN [TABLE 7], resulting in a minor effect on serotonin turnover [TABLE 8]. NE levels in the SN were decreased (17% and 13%) by both dosages (1.2 mg/mL and 3.6 mg/mL) versus vehicle treated rats, respectively [TABLE 7].
# [2] = test system: striatum levels of DA, DOPAC, HVA, 5-HT, 5-HIAA, and NE; assay: Striatum neurochemistry (RP-HPLC EC) after repeated intranasal administration; assay type: in vivo, normal Fischer 344 rats; settings: for Turnover ratio 5-HIAA/5-HT / Turnover ratio (HVA + DOPAC)/DA / Turnover ratio DOPAC/DA / Turnover ratio HVA/DA / 5-HT / 5 HIAA / DA / DOPAC / HVA / NE: 5 days a week for 3 weeks, combined left and right striatum, mean; for 5-HT / 5 HIAA / DA / DOPAC / HVA / NE: wet tissue weight
# Experimental: as §1
# Dopamine [DA], its major metabolites 3,4-Dihydroxy-Phenylacetic Acid (DOPAC) and Homovanillic Acid (HVA), 5-hydroxytryptamine (5-HT, serotonin), its metabolite 5-hydroxyindoleacetic acid (5-HIAA), and norepinephrine (NE) were measured in the striatum and substantia nigra (SN) for each group. In the striatum [TABLE 1], 1.1 mg/mL dosing of AV6403 led to a 20% and 25% reduction of DA and HVA levels [FIG. 1A-FIG. 1C], respectively, resulting in an increase in dopamine turnover (22% [DOPAC/DA] and 16% [[(HVA+DOPAC)/DA]), relative to saline vehicle treated rats [FIG. 2A-FIG. 2B]. […] NE levels were reduced in the striatum with about a 36% reduction for AV6403 1.1 mg/mL dosage versus vehicle [TABLE 1].
# as §1, with “1.2” for “1.1”, “3.6” for “3.5”, “AV7624 [Glu-Ala-Pro-Phe-Glu-Asp-NH2]” for “AV6403 [Leu-Ala-Pro-Ala-Glu-Asp-NH2] (SEQ ID NO: 1)”, “RP-HPLC EC.” for “Reverse-Phase High Pressure Liquid Chromatography Electrochemical detection (RP-HPLC EC).”
# DA, DOPAC, HVA, 5-HT, 5-HIAA, and NE were measured in the striatum and SN for each group. In the striatum [TABLE 5], 3.6 mg/mL dosing of AV7624 led to an approximate 18%, 39%, and 30% reduction of DA, DOPAC, and HVA levels [FIG. 6A-FIG. 6C], respectively, resulting in an about 18% decrease in dopamine turnover ([DOPAC/DA] and [(HVA+DOPAC)/DA]), relative to saline vehicle treated rats [FIG. 7A-FIG. 7B]. […] NE levels were reduced in the striatum in a dose dependent manner, with about a 32% reduction for the AV7624 3.6 mg/mL dosage versus vehicle [TABLE 5]
# Alzheimer's disease = settings: person
# [3] = 3.6 mg/mL intranasal, SN, relative to saline vehicle treated rats
# [4] = 3.6 mg/mL intranasal, striatum, relative to saline vehicle treated rats
# [5] = 3.6 mg/mL repeated intranasal, striatum
substance,measurement,setting,value
Cyclo (cys-Leucine-Glycine-Proline-Phenylalanine-Serine-Glutamate-cys [SEQ ID NO: 5],additional test loss from day 1 over 360 days,Parkinson's disease; buccal 100 mg every 12 hours for 180 days,minimal to no additional test loss
Glu-Ala-Pro-Phe-Glu-Asp-NH2 (EAPFED-NH2) [AV7624],Turnover ratio 5-HIAA/5-HT,[1]; 1.2 mg/mL intranasal,0.58
same,Turnover ratio (HVA + DOPAC)/DA,[1]; 1.2 mg/mL intranasal,0.34
same,Turnover ratio DOPAC/DA,[1]; 1.2 mg/mL intranasal,0.24
same,Turnover ratio HVA/DA,[1]; 1.2 mg/mL intranasal,0.10
same,5-HIAA,[1]; 1.2 mg/mL intranasal,886 ng/g
same,5-HT,[1]; 1.2 mg/mL intranasal,1546 ng/g
same,DA,[1]; 1.2 mg/mL intranasal,1918 ng/g
same,DOPAC,[1]; 1.2 mg/mL intranasal,472 ng/g
same,HVA,[1]; 1.2 mg/mL intranasal,184 ng/g
same,NE,[1]; 1.2 mg/mL intranasal,727 ng/g
same,decrease of NE levels,"[1]; 1.2 mg/mL intranasal, SN",17%
same,Turnover ratio 5-HIAA/5-HT,[1]; 3.6 mg/mL intranasal,0.57
same,Turnover ratio (HVA + DOPAC)/DA,[1]; 3.6 mg/mL intranasal,0.35
same,Turnover ratio DOPAC/DA,[1]; 3.6 mg/mL intranasal,0.22
same,Turnover ratio HVA/DA,[1]; 3.6 mg/mL intranasal,0.13
same,5-HIAA,[1]; 3.6 mg/mL intranasal,737 ng/g
same,5-HT,[1]; 3.6 mg/mL intranasal,1251 ng/g
same,DA,[1]; 3.6 mg/mL intranasal,1523 ng/g
same,DOPAC,[1]; 3.6 mg/mL intranasal,376 ng/g
same,HVA,[1]; 3.6 mg/mL intranasal,177 ng/g
same,NE,[1]; 3.6 mg/mL intranasal,767 ng/g
same,decrease of 5-HIAA,"[1]; 3.6 mg/mL intranasal, SN",about 18%
same,decrease of 5-HT,"[1]; 3.6 mg/mL intranasal, SN",20%
same,effect on serotonin turnover,"[1]; 3.6 mg/mL intranasal, SN",minor effect
same,effects on dopamine turnover,"[1]; 3.6 mg/mL intranasal, SN",minor effects
same,decrease in DA,[1]; [3],~23%
same,decrease in DOPAC,[1]; [3],~22%
same,decrease in HVA,[1]; [3],~6%
same,decrease of NE levels,"[1]; 3.6 mg/mL intranasal, SN",13%
same,Turnover ratio 5-HIAA/5-HT,[2]; 1.2 mg/mL intranasal,1.15
same,Turnover ratio (HVA + DOPAC)/DA,[2]; 1.2 mg/mL intranasal,0.38
same,Turnover ratio DOPAC/DA,[2]; 1.2 mg/mL intranasal,0.28
same,Turnover ratio HVA/DA,[2]; 1.2 mg/mL intranasal,0.09
same,5-HT,[2]; 1.2 mg/mL intranasal,610 ng/g
same,5 HIAA,[2]; 1.2 mg/mL intranasal,674 ng/g
same,DA,[2]; 1.2 mg/mL intranasal,13521 ng/g
same,DOPAC,[2]; 1.2 mg/mL intranasal,3906 ng/g
same,HVA,[2]; 1.2 mg/mL intranasal,1253 ng/g
same,NE,[2]; 1.2 mg/mL intranasal,83 ng/g
same,Turnover ratio 5-HIAA/5-HT,[2]; 3.6 mg/mL intranasal,1.05
same,Turnover ratio (HVA + DOPAC)/DA,[2]; 3.6 mg/mL intranasal,0.33
same,Turnover ratio DOPAC/DA,[2]; 3.6 mg/mL intranasal,0.24
same,Turnover ratio HVA/DA,[2]; 3.6 mg/mL intranasal,0.09
same,5-HT,[2]; 3.6 mg/mL intranasal,487 ng/g
same,5 HIAA,[2]; 3.6 mg/mL intranasal,499 ng/g
same,DA,[2]; 3.6 mg/mL intranasal,10762 ng/g
same,DOPAC,[2]; 3.6 mg/mL intranasal,2478 ng/g
same,HVA,[2]; 3.6 mg/mL intranasal,915 ng/g
same,NE,[2]; 3.6 mg/mL intranasal,67 ng/g
same,decrease in dopamine turnover ([DOPAC/DA] and [(HVA+DOPAC)/DA]),[2]; [4],about 18%
same,reduction of DA levels,[2]; [4],about 18%
same,reduction of DOPAC levels,[2]; [4],~39%
same,reduction of HVA levels,[2]; [4],~30%
same,reduction of NE levels,"[2]; 3.6 mg/mL intranasal, striatum, versus vehicle",~32%
same,effect on turnover [5-HIAA/5-HT],[2]; [5],small effect
same,reduction of 5-HIAA levels,[2]; [5],~30%
same,reduction of 5-HT levels,[2]; [5],~28%
same,"effects on DA, 5-HT and their metabolites","[2]; lower dosage (1.2 mg/mL) intranasal, striatum",less robust effects
D-Glutamate-Alanine-Proline-Phenylalanine-D-Alanine-Glycine-NH2 [SEQ ID NO: 7],cognitive loss from day 1 over 360 days,"Alzheimer's disease; Alzheimer's Disease, buccal 25 mg daily for 60 days",minimal to no cognitive loss
Tryptophan-D-Alanine-Proline-D-Lysine-Asparagine-NH2 [SEQ ID NO: 6],cognitive loss from day 1 over 360 days,"Alzheimer's disease; Alzheimer's disease, intranasal 100 mg once a week for 30 days",minimal to no cognitive loss
Glutamate-deuterated Lysine-Proline-D-Phenylalanine-deuterated Leucine-NH2 [SEQ ID NO: 8],additional UPDRS loss from day 1 over 360 days,Parkinson's disease; intranasal spray 25 mg daily for 60 days,minimal to no additional UPDRS loss
Leucine-Glycine-Proline-Phenylalanine-Serine-Glutamate,cognitive loss from day 1 over 360 days,"Alzheimer's disease; mild cognitive impairment Alzheimer's disease, intranasal 5 mg once per day for 360 days",minimal to no cognitive loss
